# Experimental data published in patent publication US10501518B2 (priority 2013, dated 2019).
# Starred links: 1 amine or outer side, 2 acyl side, 3 side chain; linkers in the order of their positions; H or OH if unused. Non-standard residues stand in square brackets, D forms with d. Residues, ends and D or L forms follow the SMILES beside them. *: point of attachment. NH(1S,2S-2-CONH2-cPent) = NC(=O)[C@H]1CCC[C@@H]1N*; β3hW = N[C@H](CC(=O)O)Cc1c[nH]c2ccccc12; X12 = O=C([C@H]1CCC[C@@H]1N[*:1])[*:2]; X13 = O=C([C@H]1CNC[C@@H]1N[*:1])[*:2]; ACPC(1S,2S) = N[C@H]1CCC[C@@H]1C(=O)*; hArg = N=C(N)NCCCC[C@H](N)C(=O)O; β3hE = N[C@@H](CCC(=O)O)CC(=O)O; β3hF = N[C@H](CC(=O)O)Cc1ccccc1; X14 = O=C(C1CCCC1N[*:1])[*:2]; β3hK = NCCCC[C@H](N)CC(=O)O; β3hM = CSCC[C@H](N)CC(=O)O; β3hD = NC(CC(=O)O)CC(=O)O; Aib = CC(C)(N)C(=O)O
# Target: T1, PTHR (Homo sapiens, UniProt Q03431)
# T1 construct: expressed in transfected cells
# T1 sequence (Q03431 27-593): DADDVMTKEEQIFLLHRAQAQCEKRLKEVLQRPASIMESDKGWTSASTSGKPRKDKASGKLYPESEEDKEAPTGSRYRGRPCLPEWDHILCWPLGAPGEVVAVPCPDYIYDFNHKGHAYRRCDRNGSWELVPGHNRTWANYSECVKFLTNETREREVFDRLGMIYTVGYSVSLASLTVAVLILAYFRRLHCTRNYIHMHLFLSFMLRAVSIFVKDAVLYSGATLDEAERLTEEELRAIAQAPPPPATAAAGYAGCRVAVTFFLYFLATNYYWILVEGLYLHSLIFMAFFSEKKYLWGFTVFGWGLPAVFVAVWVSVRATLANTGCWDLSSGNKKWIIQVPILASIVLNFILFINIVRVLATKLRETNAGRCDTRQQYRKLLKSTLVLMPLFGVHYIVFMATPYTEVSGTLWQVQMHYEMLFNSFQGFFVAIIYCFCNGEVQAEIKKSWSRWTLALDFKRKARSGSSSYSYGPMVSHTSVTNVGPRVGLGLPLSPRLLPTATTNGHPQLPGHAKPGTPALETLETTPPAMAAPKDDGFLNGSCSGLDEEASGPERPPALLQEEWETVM
# Assay: cAMP induction potency, N-terminal modifications and cyclic constraints (Tables 9, 10, 13)
# Assay type: cell-based
# Conditions: Table 9
# Method: For cAMP dose-response assays, monolayers of confluent HEK 293 cells were pre-incubated with buffer containing d-luciferin (0.5 mM) in 96 well plates at room temperature until a stable baseline level of luminescence was established (30 min). Varying concentrations of agonist were then added, and the time course of luminescence response was recorded using a Perkin Elmer plate reader following α/β-peptide addition.
row,Fold PTH,Compound
1,7.3,"CC[C@H](C)[C@H](NC(=O)[C@H](CCC(=O)O)NC(=O)[C@H](CO)NC(=O)[C@@H](NC(=O)[C@H]1CCC[C@@H]1N)C(C)C)C(=O)N[C@@H](CCC(N)=O)C(=O)N[C@H]1CCC[C@@H]1C(=O)N[C@@H](CCSC)C(=O)N[C@@H](Cc1c[nH]cn1)C(=O)N[C@@H](CC(N)=O)C(=O)N[C@@H](CC(C)C)C(=O)NCC(=O)N[C@@H](CCCCN)C(=O)N[C@H]1CCC[C@@H]1C(=O)N[C@@H](CC(C)C)C(=O)N[C@@H](CC(N)=O)C(=O)N[C@@H](CO)C(=O)N[C@H]1CCC[C@@H]1C(=O)N[C@@H](CCC(=O)O)C(=O)N[C@@H](CCCNC(=N)N)C(=O)N[C@H](C(=O)N[C@@H](CCC(=O)O)CC(=O)N[C@@H](Cc1c[nH]c2ccccc12)C(=O)N[C@@H](CC(C)C)C(=O)N[C@@H](CCCNC(=N)N)C(=O)N[C@H]1CNC[C@@H]1C(=O)N[C@@H](CCCCN)C(=O)N[C@@H](CC(C)C)C(=O)N[C@@H](CCC(N)=O)C(=O)N[C@@H](CC(=O)O)CC(=O)N[C@H](C(=O)N[C@@H](Cc1c[nH]cn1)C(=O)N[C@@H](CC(N)=O)C(=O)N[C@H]1CCC[C@@H]1C(N)=O)C(C)C)C(C)C [CycD6_ACPC(1,7), XVSEIQXMHNLGKXLNSXERVEWLRZKLQDVHNX-NH2] ({ACPC(1S,2S)}-VSEIQ[X12]MHNLGK[X12]LNS[X12]ERV[β3hE]WLR[X13]KLQ[β3hD]VHN-{NH(1S,2S-2-CONH2-cPent)}; N-terminus assumed)"
2,8.7,"CC[C@H](C)[C@H](NC(=O)[C@H](CCC(=O)O)NC(=O)[C@H](CO)NC(=O)[C@@H](NC(=O)[C@H]1CCC[C@@H]1N)C(C)C)C(=O)N[C@@H](CCC(N)=O)C(=O)N[C@H]1CCC[C@@H]1C(=O)N[C@@H](CCSC)C(=O)N[C@@H](Cc1c[nH]cn1)C(=O)N[C@@H](CC(N)=O)C(=O)N[C@@H](CC(C)C)C(=O)NCC(=O)N[C@@H](CCCCN)C(=O)N[C@H]1CCC[C@@H]1C(=O)N[C@@H](CC(C)C)C(=O)N[C@@H](CC(N)=O)C(=O)N[C@@H](CO)C(=O)N[C@H]1CCC[C@@H]1C(=O)N[C@@H](CCC(=O)O)C(=O)N[C@@H](CCCNC(=N)N)C(=O)N[C@H](C(=O)N[C@H]1CNC[C@@H]1C(=O)N[C@@H](Cc1c[nH]c2ccccc12)C(=O)N[C@@H](CC(C)C)C(=O)N[C@@H](CCCNC(=N)N)C(=O)N[C@H]1CNC[C@@H]1C(=O)N[C@@H](CCCCN)C(=O)N[C@@H](CC(C)C)C(=O)N[C@@H](CCC(N)=O)C(=O)N[C@H]1CCC[C@@H]1C(=O)N[C@H](C(=O)N[C@@H](Cc1c[nH]cn1)C(=O)N[C@@H](CC(N)=O)C(=O)N[C@H]1CCC[C@@H]1C(N)=O)C(C)C)C(C)C [FcycD6_ACPC(1,7), XVSEIQXMHNLGKXLNSXERVZWLRZKLQXVHNX-NH2] ({ACPC(1S,2S)}-VSEIQ[X12]MHNLGK[X12]LNS[X12]ERV[X13]WLR[X13]KLQ[X12]VHN-{NH(1S,2S-2-CONH2-cPent)}; N-terminus assumed)"
3,"2,045","XVSEXQXMHNLGKWLNSMERVEWLRKKLQDVHNF-NH2 [D6_ACPC(1,5,7)]"
4,266,"CSCC[C@H](NC(=O)[C@H]1CCC[C@@H]1NC(=O)[C@H](CCC(N)=O)NC(=O)[C@H]1CCC[C@@H]1NC(=O)[C@H](CCC(=O)O)NC(=O)[C@H](CO)NC(=O)[C@@H](NC(=O)[C@H]1CCC[C@@H]1N)C(C)C)C(=O)N[C@@H](Cc1c[nH]cn1)C(=O)N[C@@H](CC(N)=O)C(=O)N[C@@H](CC(C)C)C(=O)NCC(=O)N[C@@H](CCCCN)C(=O)N[C@H]1CCC[C@@H]1C(=O)N[C@@H](CC(C)C)C(=O)N[C@@H](CC(N)=O)C(=O)N[C@@H](CO)C(=O)N[C@H]1CCC[C@@H]1C(=O)N[C@@H](CCC(=O)O)C(=O)N[C@@H](CCCNC(=N)N)C(=O)N[C@H](C(=O)N[C@@H](CCC(=O)O)CC(=O)N[C@@H](Cc1c[nH]c2ccccc12)C(=O)N[C@@H](CC(C)C)C(=O)N[C@@H](CCCNC(=N)N)C(=O)N[C@H]1CNC[C@@H]1C(=O)N[C@@H](CCCCN)C(=O)N[C@@H](CC(C)C)C(=O)N[C@@H](CCC(N)=O)C(=O)N[C@@H](CC(=O)O)CC(=O)N[C@H](C(=O)N[C@@H](Cc1c[nH]cn1)C(=O)N[C@@H](CC(N)=O)C(=O)N[C@H]1CCC[C@@H]1C(N)=O)C(C)C)C(C)C [CycD6_ACPC(1,5,7), XVSEXQXMHNLGKXLNSXERVEWLRZKLQDVHNX-NH2] ({ACPC(1S,2S)}-VSE[X12]Q[X12]MHNLGK[X12]LNS[X12]ERV[β3hE]WLR[X13]KLQ[β3hD]VHN-{NH(1S,2S-2-CONH2-cPent)}; N-terminus assumed)"
5,22.6,"XVSEIQXMHNLGKWLNSMERVEWLRKKLQDVHNF-NH2 [D6_ACPC(1,7)]"

# Same assay, conditions: Table 10
row,Fold PTH,Compound
1,3.8,"CSCC[C@H](NC(=O)[C@H]1CCC[C@@H]1NC(=O)[C@H](CCC(N)=O)NC(=O)[C@H]1CCC[C@@H]1NC(=O)[C@H](CCC(=O)O)NC(=O)C(C)(C)NC(=O)[C@@H](NC(=O)[C@H]1CCC[C@@H]1N)C(C)C)C(=O)N[C@@H](Cc1c[nH]cn1)C(=O)N[C@@H](CCC(N)=O)C(=O)N[C@@H](CCCCNC(=N)N)C(=O)N[C@@H](C)C(=O)N[C@@H](CCCCN)C(=O)N[C@H]1CCC[C@@H]1C(=O)N[C@@H](CC(C)C)C(=O)N[C@@H](CC(N)=O)C(=O)N[C@@H](CO)C(=O)N[C@H]1CCC[C@@H]1C(=O)N[C@@H](CCCNC(=N)N)C(=O)N[C@@H](CCCNC(=N)N)C(=O)N[C@H](C(=O)N[C@@H](CCC(=O)O)CC(=O)N[C@@H](Cc1c[nH]c2ccccc12)C(=O)N[C@@H](CC(C)C)C(=O)N[C@@H](CCCNC(=N)N)C(=O)N[C@H]1CNC[C@@H]1C(=O)N[C@@H](CCCCN)C(=O)N[C@@H](CC(C)C)C(=O)N[C@@H](CCC(N)=O)C(=O)N[C@@H](CC(=O)O)CC(=O)N[C@H](C(=O)N[C@@H](Cc1c[nH]cn1)C(=O)N[C@@H](CC(N)=O)C(=O)N[C@H]1CCC[C@@H]1C(N)=O)C(C)C)C(C)C [M-X1,5,7-CycD6, HXVUEXQXMHQ^hRAKXLNSXRRVEWLRZKLQDVHNX-NH2] ({ACPC(1S,2S)}-V[Aib]E[X12]Q[X12]MHQ[hArg]AK[X12]LNS[X12]RRV[β3hE]WLR[X13]KLQ[β3hD]VHN-{NH(1S,2S-2-CONH2-cPent)}; N-terminus assumed)"
2,5.4,CC[C@H](C)[C@H](NC(=O)[C@H](CCC(=O)O)NC(=O)[C@H](C)NC(=O)[C@@H](NC(=O)[C@H](C)N)C(C)C)C(=O)N[C@@H](CCC(N)=O)C(=O)NC1CCCC1C(=O)N[C@@H](CCSC)C(=O)N[C@@H](Cc1c[nH]cn1)C(=O)N[C@@H](CCC(N)=O)C(=O)N[C@@H](CCCCNC(=N)N)C(=O)N[C@@H](C)C(=O)N[C@@H](CCCCN)C(=O)N[C@H](CC(=O)N[C@@H](CC(C)C)C(=O)N[C@@H](CC(N)=O)C(=O)N[C@@H](CO)C(=O)N[C@@H](CCSC)CC(=O)N[C@@H](CCCNC(=N)N)C(=O)N[C@@H](CCCNC(=N)N)C(=O)N[C@H](C(=O)N[C@@H](CCC(=O)O)CC(=O)N[C@@H](Cc1c[nH]c2ccccc12)C(=O)N[C@@H](CC(C)C)C(=O)N[C@@H](CCCNC(=N)N)C(=O)N[C@@H](CCCCN)CC(=O)N[C@@H](CCCCN)C(=O)N[C@@H](CC(C)C)C(=O)N[C@@H](CCC(N)=O)C(=O)N[C@@H](CC(=O)O)CC(=O)N[C@H](C(=O)N[C@@H](Cc1c[nH]cn1)C(=O)N[C@@H](CC(N)=O)C(=O)N[C@H](CC(N)=O)Cc1ccccc1)C(C)C)C(C)C)Cc1c[nH]c2ccccc12 (stereo partly drawn) [M-D6] (H-AVAEIQ[X14]MHQ[hArg]AK[β3hW]LNS[β3hM]RRV[β3hE]WLR[β3hK]KLQ[β3hD]VHN[β3hF]-NH2; N-terminus assumed)
3,6.3,AVAEIQXMHQ^hRAKXLNSXRRVZWLRZKLQXVHNX-NH2 [M-FcycD6]
